This is an account of results in patent publication US20100221773A1, “Nucleic Acids Encoding a Functional Mammalin Purinoreceptor, P2X3, Methods of Production and Use Thereof” (priority 2005, published 2010).

A word on the IC50: it is the concentration needed to halve the response being measured. The term EC50 denotes the concentration needed to bring the measured effect to its halfway point.

Assay [1] addresses T1, rhesus P2X3 receptor (Macaca mulatta, UniProt A0A1D5QSM7). Briefly: Intracellular calcium measurement (FLIPR, Fluo-3) to assess antagonist affinity. Format: cell-based. The conditions noted are these: for IC50: FLIPR, Flp-in T-Rex-293 cells stably expressing rhesus P2X3, antagonist 10 min before agonist αβ-meATP, read-out: IC50, block of αβ-meATP mediated increase in intracellular calcium. Here is the method: (§1) Generation of a Rhesus P2X3 Stable Cell Line—Rhesus P2X3 receptor cDNA was subcloned as a 5′HindIII and 3′XhoI fragment into the expression vector pcDNA5/FRT/TO (Invitrogen). Five micrograms of the rhesus P2X3 expression construct was transfected using Lipofectamine 2000 (Invitrogen) into Flp-in T-Rex—293 cells (Invitrogen) according to the manufacturer's directions. Cells positive for flp-mediated recombination of rhesus P2X3 were selected using 300 μg/ml hygromycin. The stable rhesus P2X3 cell line was propagated in DMEM, 10% FBS, 150 μg/ml hygromycin, 15 μg/ml blasticidin, and 100 units/ml penicillin and 100 μg/ml streptomycin, and maintained at 37° and 95% humidity. Cells were subcultured by treatment with 0.25% trypsin with 0.1% EDTA in HBSS.
Intracellular Calcium Measurement to Assess Antagonist Affinity—A fluorescent imaging plate reader (FLIPR; Molecular Devices) was used to monitor intracellular calcium levels using the calcium-chelating dye Fluo-3 (Molecular Probes). Cells expressing the rhesus P2X3 receptor were plated in the presence of 0.5 to 1 μg/ml doxycycline at a density of 30,000 cells/well in 384-well black-walled plates approximately 20 hours before beginning the assay. Cells were washed with HBSS and dye-loaded in HBSS, 2 mM CaCl2, 0.1% BSA, 0.25 mM probenecid, and 4 μM Fluo-3 for 60 min in the dark at room temperature. Prior to compound additions cells were washed with HBSS. Antagonist affinity was determined by the ability of these compounds to inhibit increases of intracellular calcium elicited by the P2X3 agonist αβ-meATP. Ten minutes prior to adding agonist, the antagonist was added and allowed to incubate at room temperature. Following agonist addition fluorescence data was collected at 5 sec intervals and analyzed based on the increase in peak relative fluorescence units (RFU) compared to the basal fluorescence. Antagonist dose-response data expressed as a response ratio (max RFU/min RFU) were analyzed using GraphPad Prism.

Assay [2] deals with T1, rhesus P2X3 receptor. Nature of the assay: In vitro electrophysiological assay (whole-cell patch clamp, PatchXpress). Format: cell-based. The conditions noted are these: for IC50: 100 μM CTP, antagonist preincubation 2 min, whole-cell patch clamp, read-out: IC50, inhibition of CTP-induced currents. Here is the method:
as §1
In vitro Electrophysiological Assay—Cells expressing rhesus P2X3 receptor were grown to a confluence of 65-85% and induced with 1 μg/ml doxycycline 20 to 32 hours prior to assay. After induction the cells were dissociated with trypsin, centrifuged, and resuspended in bath solution at a cell density of 6×10^6 cells/ml and loaded onto PatchXpress. The bath solution contained 150 mM NaCl, 4 mM KCl, 2 mM CaCl2, 1.2 mM MgCl2, 10 mM HEPES, and 11.1 mM glucose, at pH 7.2. The intracellular solution contained 140 mM K-aspartate, 20 mM NaCl, 5 mM HEPES, 10 mM EGTA, at pH 7.2. Agonist stock solutions were prepared in H2O and diluted in bath solution prior to use. All antagonists were prepared as 10 mM stock solutions in DMSO and diluted in bath solution prior to use. All experiments were performed on cells under the whole-cell patch clamp configuration at room temperature. Up to 16 individual cells could be patch clamped simultaneously on the PatchXpress instrument. A baseline response was established by repeated CTP (100 μM; for 2 sec.) followed by antagonist incubation for 2 min. in the absence of CTP. After antagonist preincubation 100 μM CTP and antagonist were co-administered to determine the inhibitory effect of the antagonist. These steps were then repeated on the same cell with a range of concentrations of the antagonist. A maximum of five concentrations of antagonist were tested on any individual cell. The control P2X3 current amplitude (IP2X3-(control)) was taken as an average of the peak current amplitude from the last two agonist additions prior to incubation with an antagonist. The peak P2X3 current amplitude in the presence of an antagonist (IP2X3-(drug)) was used to calculate the inhibitory effect at each concentration of the antagonist according to the following equation:
% inhibition of P2X3=100*(IP2X3-(control)−IP2X3-(drug))/IP2X3-(control)
Each concentration of an antagonist was tested on at least three independent cells. […]

The structures appear in SMILES notation.

In the case of `Cc1nc(N=Nc2ccc(S(=O)(=O)O)cc2S(=O)(=O)O)c(COP(=O)(O)O)c(C=O)c1O` [PPADS, pyridoxal-phoshpate-6-azophenyl-2′,4′-disulfonic acid], in assay [1] (FIG. 1, cells incubated with PPADS for 10 min prior to agonist, FLIPR traces), the “blockade of αβ-meATP activated Ca2+ influx” value is recorded as “dose-dependent blockade”. The IC50 in assay [1] was 2.9 µM; in assay [2] (FIG. 3), 2.2 µM. In addition, the “rhesus P2X3 inward current elicited by CTP in the presence of antagonist” value in assay [2] (FIG. 3A, 3 μM PPADS, 100 mM CTP (control) as printed) is recorded as “diminished”.
Take `Nc1ncnc2c1ncn2[C@@H]1O[C@H](COP(=O)(O)CP(=O)(O)OP(=O)(O)O)[C@@H](O)[C@H]1O` [αβ-meATP]: in assay [2] (patch-clamp, rhesus P2X3 stable cell line, FIG. 2, read-out: EC50, inward current evoked by agonist), the EC50 is 1 µM.
In the case of `Cc1ccc(C(=O)Nc2ccc(S(=O)(=O)O)c3cc(S(=O)(=O)O)cc(S(=O)(=O)O)c23)cc1NC(=O)c1cccc(NC(=O)Nc2cccc(C(=O)Nc3cc(C(=O)Nc4ccc(S(=O)(=O)O)c5cc(S(=O)(=O)O)cc(S(=O)(=O)O)c45)ccc3C)c2)c1` [suramin], the IC50 was determined as 1.5 µM in assay [1] and 0.382 µM in assay [2].
